Reference: patent US20110190142A1, “DETERMINATION OF RENIN-PRORENIN RECEPTOR ACTIVITY” (Charite- Universitatsmedizin Berlin, priority 2006, published 2011)

What was measured:
Format in all cases: cell-based, human
[1] = system: renin/prorenin receptor (RER); experiment: Renin- and prorenin-mediated RER activation (RER-PLZF pathway) in HEK293 cells with aliskiren or siRNA
Description: (§1) For all cell culture studies immortalized human epithelial kidney cells (HEK293 cells) were used. […] Additional inhibition with 1 μM aliskiren was performed as indicated. 1 hour after pre-treatment with losartan±aliskiren cells were stimulated with either 5 nM renin, 5 nM prorenin, or the respective vehicle. Cells were harvested for mRNA expression analysis or determination of viable cell number and apoptosis after 3 or 24 hours, respectively. These experimental procedures have been described in detail previously (Schefe et al., 2006). All experiments were performed in independent triplicates.

[2] = system: renin/prorenin receptor (RER); experiment: PI3K-p85α promoter luciferase reporter assay under renin stimulation; settings: PLZF-overexpressing HEK293 cells
Description: The indicated cell types were seeded on day 1 in 12-well plates. 100 ng of indicated pGL3-basic constructs (encoding firefly luciferase) and 20 ng of phRL-null plasmid (encoding humanized Renilla luciferase for standardization of promoter activity; Promega) per well were transfected on day 2 at 60-80% confluency using GeneJuice (Merck Biosciences, Bad Soden, Germany) according to the manufacturer's protocol. Cells were harvested 48 hours after transfection using Passive Lysis Buffer (Promega). Reporter activities were measured in a Pharmingen Monolight 3010 luminometer (BD Biosciences, Erembodegem, Belgium) using the Dual-Luciferase Reporter Assay System (Promega). Promoter activity is expressed as relative luciferase activity (RLA) (Funke-Kaiser et al., 2003a). RLA data represent the mean±standard deviation of at least three single, parallel transfection experiments.
(§2) HEK293 cells were seeded in 24-well plates and transfected with either 100 ng of pCEP4-PLZF-myc expression vector, 50 ng of indicated pGL3-basic construct and 10 ng of phRL-null plasmid (for luciferase assay), or 100 ng of pCEP4-PLZF-myc alone (for PCR experiments) per well as described above. siRNA transfection, renin stimulation and determination of reporter activity were performed as described above, except for an exceeded renin stimulation period of 3 hours.

[3] = system: renin/prorenin receptor (RER); experiment: PI3K-p85α mRNA by quantitative real-time PCR after renin/prorenin stimulation of HEK293 cells; settings: HEK293 cells, regardless of PLZF expression level
Description: as §2
RNA isolation and cDNA synthesis were performed as described above. qPCR was performed applying a SYBR Green I reaction mix and run on a Stratagene Mx3000P (Stratagene, La Jolla, Calif., USA) using the following primers: […]
Data represents the mean expression level±standard deviation (standardized to 18S rRNA expression) calculated according to the ddCT method of at least three independent measurements. Equality of PCR efficiencies has been verified applying the program LinRegPCR (Ramakers et al. 2003) and ANOVA testing.
as §1

[4] = system: RER mRNA; experiment: Down-regulation of RER mRNA by siRNA (real-time PCR); settings: HEK293 cells
Description: For PLZF translocation experiments HEK293 cells were seeded on day 1 in 6-well plates. 250 ng of pCEP4-PLZF-myc expression vector per well were transfected on day 2 at 40-60% confluency using GeneJuice (Merck Biosciences, Bad Soden, Germany) according to the manufacturer's protocol. On day 3 the cells were transfected with 50 nM siRNA against the RER [5′-GCUCCGUAAUCGCCUGUUU (sense strand), (SEQ ID No. 38); 5′-AAACAGGCGAUUACGGAGC (antisense strand), (SEQ ID No. 39)] or GFP control siRNA (Eurogentec, Seraing, Belgium) using jetSI-ENDO (Eurogentec) following the standard procedure. On day 5, after 24 hours of starving in serum-free medium, cells were stimulated with 10 nM human recombinant renin (mammalian expression; kind gift from Dominik N. Müller, MDC Berlin) or vehicle (0.1% DMSO in PBS) for 2 hours. Western blot was performed with anti-c-myc antibody (mouse monoclonal, 9B11; 1:2,000; Cell Signalling) and horseradish peroxidase-conjugated anti-mouse antibody (rabbit polyclonal; 1:2,500; DAKO). Chemoluminescence was detected with ECL (Amersham, München, Germany), and subsequent exposition to Hyperfilm (Amersham). […]

[5] = system: RER protein; experiment: Down-regulation of RER protein by siRNA (Western blot, densitometry); settings: Western blot of total cell lysate
Description: For analysis of subcellular localization of RER, 9 μg (membrane) and 12 μg (cytosolic) protein were loaded per lane, separated in a 10% SDS-PAGE and transferred to a nitrocellulose membrane. Western blot analysis was performed with an antibody against human RER (corresponding ATP6AP2; goat polyclonal, ab5959, Abcam, Cambridge, UK) at a dilution of 0.5 μg/ml. Horseradish peroxidase-conjugated anti-goat antibody (rabbit polyclonal; 1:2,500; DAKO, Hamburg, Germany) was used as secondary antibody.
For PLZF translocation experiments HEK293 cells were seeded on day 1 in 6-well plates. 250 ng of pCEP4-PLZF-myc expression vector per well were transfected on day 2 at 40-60% confluency using GeneJuice (Merck Biosciences, Bad Soden, Germany) according to the manufacturer's protocol. On day 3 the cells were transfected with 50 nM siRNA against the RER [5′-GCUCCGUAAUCGCCUGUUU (sense strand), (SEQ ID No. 38); 5′-AAACAGGCGAUUACGGAGC (antisense strand), (SEQ ID No. 39)] or GFP control siRNA (Eurogentec, Seraing, Belgium) using jetSI-ENDO (Eurogentec) following the standard procedure. […] Chemoluminescence was detected with ECL (Amersham, München, Germany), and subsequent exposition to Hyperfilm (Amersham).

Compound | influence on the effects of renin and prorenin (RER and PI3K-p85α transcription, proliferation, apoptosis) ([1]; pre-treatment with 1 μM aliskiren) | influence on renin-induced increase in PI3K-p85α promoter activity [2] | influence on renin induction of PI3K-p85α mRNA [3] | RER mRNA repressed to ([4]; 50 nM siRNA) | average reduction of RER mRNA ([4]; siRNA transfected 24 hours before stimulation) | RER protein reduced to (densitometric measurement, compared to control) [5] | influence on transcriptional and cellular effects of prorenin stimulation ([1]; siRNA 24 hours before prorenin)
COCCCOc1cc(C[C@@H](C[C@H](N)[C@@H](O)C[C@H](C(=O)NCC(C)(C)C(N)=O)C(C)C)C(C)C)ccc1OC [aliskiren] | not affected |  |  |  |  |  | 
siRNA against the RER: siRNA 5′-GCUCCGUAAUCGCCUGUUU (sense), 5′-AAACAGGCGAUUACGGAGC (antisense), SEQ ID No. 38/39 (listed as RNA, chemistry not given here; listed as Homo sapiens) |  | abolished | abolished this induction | 29.8±5.2% | 81.1±4.5% | less than 10% | completely abolished
